Assay results taken from patent US20240246972A1, “AZAINDOLE ROCK INHIBITORS” (priority 2022, published 2024).
In brackets after ≈: the same amount, converted by molar mass.

What was measured:
ROCK2 = ROCK2 (Homo sapiens (Human), UniProt O75116); assay: ROCK2 inhibition assay (HotSpot kit, 33P-ATP); format: biochemical; conditions: 10 μM ATP
ROCK1 = ROCK1 (Homo sapiens (Human), UniProt Q13464); assay: ROCK1 inhibition assay (HotSpot kit, 33P-ATP); format: biochemical; conditions: 10 μM ATP
PRKX = PRKX (Homo sapiens (Human), UniProt P51817); assay: PRKX inhibition assay (HotSpot kit, 33P-ATP); format: biochemical; conditions: Table 2B; 10 μM ATP; Compound 1 is geometric mean of multiple experiments
Protocol: (§1) Compounds as a powder were dissolved in dimethyl sulfoxide to make a 10 mM stock. […] The HotSpot kit employing ^33P-ATP was used with reactions conducted at 10 μM ATP for each tested enzyme. The percent activity relative to DMSO controls for each concentration was then fitted to a curve using GraphPad Prism to determine the IC50. […] Each experiment was run in the same lab with this procedure.

P-gp (MDR1) [1] = assay: MDCK-MDR1 efflux assay, Experimental Procedure 2; format: in vitro ADME; conditions: dog, Table 3B, pH 7.4
[2] = mouse, in vivo, po, 20 mg/kg
P-gp (MDR1) [3] = assay: MDCK-MDR1 efflux assay, Experimental Procedure 1; format: in vitro ADME; conditions: dog, Table 3A, pH 7.4
Protocol: MDCK-MDR1 cells grown in tissue culture flasks were trypsinized, suspended in medium, and the suspensions were applied to wells of a Millipore 96 well plate. The cells were allowed to grow and differentiate for five days, feeding at 2-day intervals. For Apical to Basolateral (A→B) permeability, the test article was added to the apical (A) side and amount of permeation was determined on the basolateral (B) side; for Basolateral to Apical (B→A) permeability, the test article was added to the B side and the amount of permeation was determined on the A side. […] Following centrifugation, the supernatant for donor and receiver side samples were analyzed by LC-MS/MS. Data was expressed as permeability (Papp):Papp=(dQ/dt)/(C0A) where dQ/dt is rate of permeation, C0 is initial concentration of test article, and A is the area of monolayer. In bidirectional permeability studies, the Efflux Ratio (Re) was calculated: [formula]

[4] = Kinetic solubility in PBS pH 7.4; format: physicochemical; conditions: aqueous buffer, kinetic from dmso stock, PBS pH 7.4, 25° C.
Protocol: The assay was performed in duplicate.

[5] = 24 hour rat pharmacokinetics; format: in vivo, Sprague-dawley rats; conditions: male
[6] = 24 hour mouse pharmacokinetics; format: in vivo, B6SJLF1/J mice; conditions: for AUC(0-inf) / AUC(0-t) / Cmax / half-life / Tmax: B6SJLF1/J, plasma
Protocol: Groups 2, 3, 4, 6, and 8: Test article was dissolved in a minimal amount of DMSO (Groups 2, 4, 6, 8: 40-50 μL, Group 3: 100 μL), 0.5% methylcellulose was added to final volume, then solution was sonicated for 2 minutes.
Group 7: Test article was dissolved in 100 μL DMSO, saline was added to final volume, then solution was sonicated for 2 minutes.
Groups 1, 5: The test article was administered as a single dose via slow bolus intravenous administration into a lateral tail vein, with a 27G needle.
Groups 2, 4, 6, 7, 8: The test article was administered as a single dose directly to the stomach by oral gavage.
Group 3: The test article was administered as a single dose in two parts with an approximate 1-2-minute rest between due to volume administered.
Approximately 150 μL of blood was collected by tail nick for the first time point and then the maximal volume by cardiac stick for the second, terminal time point in each mouse. The plasma was spun and separated within 30 minutes of collection and stored frozen at −20° C. until shipment.
Prior to the terminal blood collection, CSF was collected. […] The resulting data is shown in Tables 13, 14, 15, 16 and 17 below.

PKA = PKA (Homo sapiens (Human), UniProt P17612); assay: PKA inhibition assay (HotSpot kit, 33P-ATP); format: biochemical; conditions: Table 2B; 10 μM ATP; Compound 1 is geometric mean of multiple experiments
Protocol: as §1

[7] = Table 2B, Compound 1 is geometric mean of multiple experiments
[8] = Sprague-Dawley, in vivo, IV 3 mg/kg
[9] = Sprague-Dawley, in vivo, PO 10 mg/kg

ROCK1, sequence (Q13464 whole entry): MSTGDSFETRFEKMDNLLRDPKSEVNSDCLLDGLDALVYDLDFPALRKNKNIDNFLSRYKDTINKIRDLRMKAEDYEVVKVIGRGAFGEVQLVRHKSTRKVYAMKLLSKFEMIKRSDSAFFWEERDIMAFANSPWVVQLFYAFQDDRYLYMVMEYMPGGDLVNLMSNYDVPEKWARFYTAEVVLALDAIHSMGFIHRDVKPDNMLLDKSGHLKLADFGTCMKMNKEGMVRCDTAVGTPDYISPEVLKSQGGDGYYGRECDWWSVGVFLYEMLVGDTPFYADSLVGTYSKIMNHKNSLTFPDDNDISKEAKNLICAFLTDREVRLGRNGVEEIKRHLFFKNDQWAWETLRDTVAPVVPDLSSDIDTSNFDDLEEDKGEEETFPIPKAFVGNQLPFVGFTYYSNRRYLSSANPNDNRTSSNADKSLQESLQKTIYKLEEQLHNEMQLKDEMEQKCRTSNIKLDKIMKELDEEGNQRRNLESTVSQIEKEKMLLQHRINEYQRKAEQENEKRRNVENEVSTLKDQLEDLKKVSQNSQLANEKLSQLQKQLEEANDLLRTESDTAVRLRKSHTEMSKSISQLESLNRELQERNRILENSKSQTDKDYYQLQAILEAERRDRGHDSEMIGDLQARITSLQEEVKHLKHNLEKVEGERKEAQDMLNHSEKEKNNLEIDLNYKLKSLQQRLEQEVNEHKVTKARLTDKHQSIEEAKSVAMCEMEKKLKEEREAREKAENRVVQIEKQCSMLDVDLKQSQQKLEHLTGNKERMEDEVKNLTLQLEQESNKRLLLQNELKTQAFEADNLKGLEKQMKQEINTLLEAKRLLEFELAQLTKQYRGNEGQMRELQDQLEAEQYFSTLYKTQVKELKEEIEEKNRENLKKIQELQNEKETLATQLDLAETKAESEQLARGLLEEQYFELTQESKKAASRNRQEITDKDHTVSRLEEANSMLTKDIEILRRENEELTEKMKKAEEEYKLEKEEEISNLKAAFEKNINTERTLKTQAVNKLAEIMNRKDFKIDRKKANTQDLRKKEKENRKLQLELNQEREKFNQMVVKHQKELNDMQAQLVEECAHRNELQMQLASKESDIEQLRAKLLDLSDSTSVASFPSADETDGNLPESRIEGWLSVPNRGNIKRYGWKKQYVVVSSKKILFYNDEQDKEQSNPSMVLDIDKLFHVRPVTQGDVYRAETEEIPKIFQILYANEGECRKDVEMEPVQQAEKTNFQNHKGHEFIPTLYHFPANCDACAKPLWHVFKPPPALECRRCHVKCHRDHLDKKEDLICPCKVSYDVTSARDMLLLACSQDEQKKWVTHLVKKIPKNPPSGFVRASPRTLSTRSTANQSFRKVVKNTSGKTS
PRKX, sequence (P51817 whole entry): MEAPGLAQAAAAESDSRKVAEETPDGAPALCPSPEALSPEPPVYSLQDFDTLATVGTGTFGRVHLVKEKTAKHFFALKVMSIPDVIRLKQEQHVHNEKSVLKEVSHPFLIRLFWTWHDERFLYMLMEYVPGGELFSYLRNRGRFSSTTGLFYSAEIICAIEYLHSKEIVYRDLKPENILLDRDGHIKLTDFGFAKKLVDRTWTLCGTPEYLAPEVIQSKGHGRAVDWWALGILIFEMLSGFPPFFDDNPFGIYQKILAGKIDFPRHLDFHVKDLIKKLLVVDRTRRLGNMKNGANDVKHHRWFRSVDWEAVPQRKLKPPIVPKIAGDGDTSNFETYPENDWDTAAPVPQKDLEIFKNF
ROCK2, sequence (O75116 whole entry): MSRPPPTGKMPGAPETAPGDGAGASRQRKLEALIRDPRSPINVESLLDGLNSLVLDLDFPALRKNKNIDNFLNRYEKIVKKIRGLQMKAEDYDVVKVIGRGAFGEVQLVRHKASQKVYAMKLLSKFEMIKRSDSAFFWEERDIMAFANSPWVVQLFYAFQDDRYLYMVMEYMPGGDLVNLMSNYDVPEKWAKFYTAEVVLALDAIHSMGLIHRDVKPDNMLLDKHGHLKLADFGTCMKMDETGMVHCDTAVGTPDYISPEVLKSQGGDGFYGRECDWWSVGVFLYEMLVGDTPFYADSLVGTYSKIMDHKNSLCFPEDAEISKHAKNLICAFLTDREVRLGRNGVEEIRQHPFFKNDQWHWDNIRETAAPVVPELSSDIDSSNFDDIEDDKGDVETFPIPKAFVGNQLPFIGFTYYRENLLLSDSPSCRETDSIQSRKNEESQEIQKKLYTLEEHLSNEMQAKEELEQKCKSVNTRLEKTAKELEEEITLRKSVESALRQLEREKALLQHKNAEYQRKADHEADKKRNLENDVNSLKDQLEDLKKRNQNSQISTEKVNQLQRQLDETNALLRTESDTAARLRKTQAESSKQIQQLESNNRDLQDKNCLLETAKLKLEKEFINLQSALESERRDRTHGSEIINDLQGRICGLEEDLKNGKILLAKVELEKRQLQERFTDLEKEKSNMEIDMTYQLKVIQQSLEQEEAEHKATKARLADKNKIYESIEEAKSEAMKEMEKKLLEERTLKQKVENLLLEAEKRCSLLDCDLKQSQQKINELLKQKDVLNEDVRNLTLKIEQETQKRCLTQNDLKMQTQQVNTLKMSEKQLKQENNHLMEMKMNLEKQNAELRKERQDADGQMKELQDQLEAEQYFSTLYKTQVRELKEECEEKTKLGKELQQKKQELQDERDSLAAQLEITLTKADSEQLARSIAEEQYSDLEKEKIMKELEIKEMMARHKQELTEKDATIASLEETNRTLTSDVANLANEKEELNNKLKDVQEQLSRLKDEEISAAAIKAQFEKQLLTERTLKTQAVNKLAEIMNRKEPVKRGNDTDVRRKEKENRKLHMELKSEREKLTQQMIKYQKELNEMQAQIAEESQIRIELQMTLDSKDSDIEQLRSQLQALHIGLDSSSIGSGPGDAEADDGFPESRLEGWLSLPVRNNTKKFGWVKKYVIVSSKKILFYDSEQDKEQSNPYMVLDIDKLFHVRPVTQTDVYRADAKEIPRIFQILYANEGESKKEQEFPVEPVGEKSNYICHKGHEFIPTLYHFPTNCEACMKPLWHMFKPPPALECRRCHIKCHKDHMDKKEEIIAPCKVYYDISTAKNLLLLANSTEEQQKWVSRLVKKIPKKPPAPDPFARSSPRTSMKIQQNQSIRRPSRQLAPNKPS

Question: With `O=C(NCc1ccccc1F)c1cc2ccc(-c3cn[nH]c3C(F)(F)F)nc2[nH]1` [Compound 11, N-[(2-Fluorophenyl)methyl]-6-[3-(trifluoromethyl)-2H-pyrazol-4-yl]-1H-pyrrolo[2,3-b]pyridine-2-carboxamide] as the compound, how does the IC50 (ROCK2; [7]) read?
Answer: Its IC50 is 1.37 µM.

Question: What about the IC50 (ROCK1; [7]) of the same compound?
Answer: The IC50 was over 1 µM.

Question: Which IC50 (PRKX) does the source give for `Cn1c(C(=O)NCc2ccccc2F)cc2ccc(-c3cn[nH]c3)nc21` [Compound 1, N-(2-fluorobenzyl)-1-methyl-6-(1H-pyrazol-4-yl)-1H-pyrrolo[2,3-b]pyridine-2-carboxamide] here?
Answer: Its IC50 is 0.0314 µM.

Question: What about the efflux ratio at 2 h, 1 µM (P-gp (MDR1) [1]) of the same compound?
Answer: The efflux ratio at 2 h, 1 µM was 0.8.

Question: What about the “mortality and adverse events” value [2] of the same compound?
Answer: The value was “no animals died or had adverse events”.

Question: And the “plasma level in 24 hours” value [2]?
Answer: The value was “below the detection limit”.

Question: And the efflux ratio at 2 h (P-gp (MDR1) [3])?
Answer: The efflux ratio at 2 h was 1.46.

Question: What about the IC50 (ROCK2; Table 2A) of the same compound?
Answer: The IC50 was 0.0023 µM.

Question: What about the IC50 (ROCK2; [7]) of the same compound?
Answer: The IC50 was 0.0027 µM.

Question: What about the solubility kinetic at 2 h [4] of the same compound?
Answer: Its solubility kinetic at 2 h is 0.64 µM (≈ 0.224 µg/mL).

Question: What about the AUC0-t/D ([5]; IV 3 mg/kg) of the same compound?
Answer: Its AUC0-t/D is 1541 (h*ng/mL)/(mg/kg).

Question: What about the Tlast ([5]; IV 3 mg/kg) of the same compound?
Answer: Its Tlast is 24 h.

Question: And the AUC0-t/D ([5]; PO 10 mg/kg)?
Answer: The AUC0-t/D was 261 (h*ng/mL)/(mg/kg).

Question: What about the Tlast ([5]; PO 10 mg/kg) of the same compound?
Answer: Its Tlast is 24 h.

Question: What about the AUC(0-inf) [5, 8] of the same compound?
Answer: Its AUC(0-inf) is 4650 ng·h/mL.

Question: What about the AUC(0-t) [5, 8] of the same compound?
Answer: The AUC(0-t) was 4620 ng·h/mL.

Question: What about the Cmax [5, 8] of the same compound?
Answer: Its Cmax is 5540 ng/mL.

Question: What about the half-life [5, 8] of the same compound?
Answer: Its half-life is 5.33 h.

Question: What about the AUC(0-t) [5, 9] of the same compound?
Answer: The AUC(0-t) was 2610 ng·h/mL.

Question: What about the Cmax [5, 9] of the same compound?
Answer: The Cmax was 409 ng/mL.

Question: And the Tmax [5, 9]?
Answer: The Tmax was 2.67 h.

Question: And the half-life [5, 9]?
Answer: Its half-life is 3.67 h.

Question: And the AUC(0-inf) ([5]; Sprague-Dawley, plasma, PO 10 mg/kg)?
Answer: Its AUC(0-inf) is 2660 ng·h/mL.

Question: And the AUC(0-inf) ([6]; IV 3 mg/kg, male)?
Answer: The AUC(0-inf) was 10200 ng·h/mL.

Question: What about the AUC(0-t) ([6]; IV 3 mg/kg, male) of the same compound?
Answer: Its AUC(0-t) is 10100 ng·h/mL.

Question: And the Cmax ([6]; IV 3 mg/kg, male)?
Answer: Its Cmax is 12200 ng/mL.

Question: And the half-life ([6]; IV 3 mg/kg, male)?
Answer: Its half-life is 0.987 h.

Question: And the AUC(0-t) ([6]; PO 10 mg/kg, female)?
Answer: Its AUC(0-t) is 5670 ng·h/mL.

Question: And the Cmax ([6]; PO 10 mg/kg, female)?
Answer: The Cmax was 1110 ng/mL.

Question: What about the Tmax ([6]; PO 10 mg/kg, female) of the same compound?
Answer: Its Tmax is 1 h.

Question: And the AUC(0-inf) ([6]; PO 10 mg/kg, male)?
Answer: Its AUC(0-inf) is 5750 ng·h/mL.

Question: What about the AUC(0-t) ([6]; PO 10 mg/kg, male) of the same compound?
Answer: Its AUC(0-t) is 5350 ng·h/mL.

Question: And the Cmax ([6]; PO 10 mg/kg, male)?
Answer: The Cmax was 1040 ng/mL.

Question: And the Tmax ([6]; PO 10 mg/kg, male)?
Answer: Its Tmax is 1 h.

Question: And the half-life ([6]; PO 10 mg/kg, male)?
Answer: Its half-life is 2.72 h.

Question: And the AUC(0-inf) ([6]; PO 100 mg/kg, male)?
Answer: The AUC(0-inf) was 46000 ng·h/mL.

Question: And the AUC(0-t) ([6]; PO 100 mg/kg, male)?
Answer: The AUC(0-t) was 44100 ng·h/mL.

Question: What about the Cmax ([6]; PO 100 mg/kg, male) of the same compound?
Answer: The Cmax was 4070 ng/mL.

Question: What about the Tmax ([6]; PO 100 mg/kg, male) of the same compound?
Answer: Its Tmax is 8 h.

Question: And the half-life ([6]; PO 100 mg/kg, male)?
Answer: The half-life was 4.47 h.

Question: What about the AUC0-t/D ([6]; IV 3 mg/kg, male) of the same compound?
Answer: Its AUC0-t/D is 3380 (h*ng/mL)/(mg/kg).

Question: And the Tlast ([6]; IV 3 mg/kg, male)?
Answer: Its Tlast is 8 h.

Question: What about the AUC0-t/D ([6]; PO 10 mg/kg, female) of the same compound?
Answer: The AUC0-t/D was 567 (h*ng/mL)/(mg/kg).

Question: And the Tlast ([6]; PO 10 mg/kg, female)?
Answer: The Tlast was 24 h.

Question: And the AUC0-t/D ([6]; PO 10 mg/kg, male)?
Answer: The AUC0-t/D was 535 (h*ng/mL)/(mg/kg).

Question: What about the Tlast ([6]; PO 10 mg/kg, male) of the same compound?
Answer: The Tlast was 12 h.

Question: And the “Ratio to 10 mg/kg Dose Level, AUC0-t” value ([6]; PO 100 mg/kg vs 10 mg/kg, male)?
Answer: Its value is 8.24.

Question: What about the “Ratio to 10 mg/kg Dose Level, AUC0-∞” value ([6]; PO 100 mg/kg vs 10 mg/kg, male) of the same compound?
Answer: The value was 8.00.

Question: What about the “Ratio to 10 mg/kg Dose Level, Cmax” value ([6]; PO 100 mg/kg vs 10 mg/kg, male) of the same compound?
Answer: The value was 3.91.

Question: What about the AUC0-t/D ([6]; PO 100 mg/kg, male) of the same compound?
Answer: Its AUC0-t/D is 441 (h*ng/mL)/(mg/kg).

Question: And the Tlast ([6]; PO 100 mg/kg, male)?
Answer: The Tlast was 24 h.

Question: And the IC50 (PKA)?
Answer: The IC50 was 0.238 µM.

Question: And the IC50 (ROCK1; Table 2A)?
Answer: Its IC50 is 0.0164 µM.

Question: What about the IC50 (ROCK1; [7]) of the same compound?
Answer: The IC50 was 0.0303 µM.

Question: For `Cc1[nH]ncc1-c1ccc2cc(C(=O)NCc3c(Cl)cccc3OC3COC3)[nH]c2n1` [Comparator 3, N-(2-chloro-6-(oxetan-3-yloxy)benzyl)-6-(5-methyl-1H-pyrazol-4-yl)-1H-pyrrolo[2,3-b]pyridine-2-carboxamide, reference compound], which IC50 (PRKX) is on record?
Answer: Its IC50 is 0.376 µM.

Question: What about the efflux ratio at 2 h (P-gp (MDR1) [3]) of the same compound?
Answer: Its efflux ratio at 2 h is 256.

Question: What about the IC50 (ROCK2; Table 2A) of the same compound?
Answer: The IC50 was 0.587 µM.

Question: And the IC50 (PKA)?
Answer: The IC50 was 1.4 µM.

Question: And the IC50 (ROCK1; Table 2A)?
Answer: The IC50 was over 1 µM.

Question: With `Cc1[nH]ncc1-c1ccc2cc(C(=O)NCc3c(Cl)cccc3C3(O)CC3)[nH]c2n1` [Compound 6, N-(2-chloro-6-(1-hydroxycyclopropyl)benzyl)-6-(5-methyl-1H-pyrazol-4-yl)-1H-pyrrolo[2,3-b]pyridine-2-carboxamide] as the compound, how does the efflux ratio at 2 h (P-gp (MDR1) [3]) read?
Answer: The efflux ratio at 2 h was 133.

Question: For `C[C@H]1O[C@@H](O[C@H]2[C@@H](O)C[C@H](O[C@H]3[C@@H](O)C[C@H](O[C@H]4CC[C@@]5(C)[C@H](CC[C@@H]6[C@@H]5C[C@@H](O)[C@]5(C)[C@@H](C7=CC(=O)OC7)CC[C@]65O)C4)O[C@@H]3C)O[C@@H]2C)C[C@H](O)[C@@H]1O` [Digoxin, reference compound], which efflux ratio at 2 h (P-gp (MDR1) [3]) is on record?
Answer: The efflux ratio at 2 h was 28.4.

Question: Which IC50 (PRKX) does the source give for `COc1cccc(CNC(=O)c2cc3ccc(-c4cn[nH]c4)nc3[nH]2)c1` [Comparator 6, N-(3-methoxybenzyl)-6-(1H-pyrazol-4-yl)-1H-pyrrolo[2,3-b]pyridine-2-carboxamide, reference compound] here?
Answer: Its IC50 is 0.165 µM.

Question: What about the IC50 (ROCK2; [7]) of the same compound?
Answer: The IC50 was 0.00096 µM.

Question: What about the IC50 (ROCK1; [7]) of the same compound?
Answer: The IC50 was 0.0102 µM.

Question: With `CC(=O)[C@H]1CC[C@H]2[C@@H]3CCC4=CC(=O)CC[C@]4(C)[C@H]3CC[C@]12C` [Progesterone, reference compound] as the compound, how does the solubility kinetic at 2 h [4] read?
Answer: Its solubility kinetic at 2 h is 13.3 µM (≈ 4.19 µg/mL).
